# Data taken from patent US20150133411A1, “COMPOUNDS WITH TRPV4 ACTIVITY, COMPOSITIONS AND ASSOCIATED METHODS THEREOF” (The University of Utah Research Foundation, priority 2012, published 2015).
# Experiments:
# retinal ganglion cells = test: RGC density (TuJ-1+, CFP+) in retinal wholemounts of MB-injected mice; type: in vivo, mouse
# Protocol: FIG. 2 confirms that the mouse model for glaucoma causes RGC degeneration. Specifically, microbeads (MBs) were injected into the anterior chamber of a mouse eye. The MBs increase intraocular IOP above 15 mm Hg by blocking outflow of the aqueous humor within the anterior chamber of the eye. MBs were reinjected as needed to maintain a high IOP, typically one injection every two weeks. Contralateral eyes were injected intraocularly with the vehicle PBS (phosphate buffered saline) as controls. […] IOP levels were measured at least twice weekly before and after intraocular injections. After injections, mice recovered for 48 hours before IOP measurements resumed. Following 4 or 8 weeks of IOP elevation, mice were intracardially perfused with 4% paraformaldehyde in 1× PBS to fix the retinas. Retinas were then removed and processed for immunohistochemistry (IHC). Whole retinas were rinsed with 1× PBS three times at room temperature then incubated in blocking buffer (1× PBS+1% BSA). […] The density of RGCs was imaged with a confocal microscope (Zeiss LSM 510) and quantified by counting NeuN-, CFP- and/or Tuj-1-labeled somata in the RGC layer of the retinal wholemount preparation. […]
# RGD density was quantified in retinas isolated from TuJ-1^+ mice and transgenic Thy1-CRP^+ transgenic mice that had been injected with either MBs or vehicle (PBS) then dosed with either compound 1 or vehicle (PBS). […] TuJ-1 was quantified by immunohistochemistry using a Tuj-1-specific antibody conjugated to a fluorescent Alexa 488 or Alexa 594 secondary antibody. […] For fluorescence immunocytochemistry, retinal wholemounts were washed in PBS, then placed for 30 min. to 1 hour in blocking solution (10 ml PBS, 30 μL Triton-X 100, 100 mg bovine serum albumin, 100 μL 10% w/v Na azide solution) in OCT (Ted Pella, Redding, Pa.). […]
# [1] = test system: MB mouse model of glaucoma; test: IOP in microbead (MB) mouse model of glaucoma, IP dosing; type: in vivo; conditions: 10 mg/kg body weight IP; MB-injected mice
# Protocol: FIG. 2 confirms that the mouse model for glaucoma causes RGC degeneration. Specifically, microbeads (MBs) were injected into the anterior chamber of a mouse eye. The MBs increase intraocular IOP above 15 mm Hg by blocking outflow of the aqueous humor within the anterior chamber of the eye. MBs were reinjected as needed to maintain a high IOP, typically one injection every two weeks. Contralateral eyes were injected intraocularly with the vehicle PBS (phosphate buffered saline) as controls. […] IOP levels were measured at least twice weekly before and after intraocular injections. After injections, mice recovered for 48 hours before IOP measurements resumed. […] Retinas were then removed and processed for immunohistochemistry (IHC). […] After rinsing with PBS, PBS containing the secondary antibody conjugated to fluorophores (Alexa 488 or Alexa 594; […] Retinas were rinsed and flat-mounted on microscope slides. Mounting medium was added and retinal wholemounts were coverslipped. The density of RGCs was imaged with a confocal microscope (Zeiss LSM 510) and quantified by counting NeuN-, CFP- and/or Tuj-1-labeled somata in the RGC layer of the retinal wholemount preparation. Injection of microbeads induces RGC degeneration after 8 weeks but not after 4 weeks. […] Mice were sedated with IP injection of Avertin with final amount calculated by weight (e.g., 0.5 ml for 21-24 g animals). […]
compound,measurement,setting,value
"Cc1c(C(=O)Nc2cccc(C(F)(F)F)c2)cc(-c2ccccc2)n1CCCN1CCOCC1 [Compound 1, N-(3-(trifluoromethyl)phenyl)-2-methyl-1-(3-morpholinopropyl)-5-phenyl-1H-pyrrole-3-carboxamide]","TuJ-1+ cells in alpha, beta and omega regions",retinal ganglion cells; MB-injected mice,rescues RGCs across all regions of the retina
same,density of RGCs (TuJ-1+ and Thy1:CFP+ cells),"retinal ganglion cells; MB-injected mice, 8 weeks of increased IOP",RGC loss was rescued
same,"CFP+ cells in alpha, beta and omega regions","retinal ganglion cells; Thy1-CFP transgenic mice, MB-injected",rescues RGCs across all regions of the retina
same,MB-induced increase in IOP,[1],blocked the increase in IOP to the level observed in control mice
